ChEMBL document CHEMBL1144779, “Identification of novel cannabinoid CB1 receptor antagonists by using virtual screening with a pharmacophore model” (J Med Chem, 2008)

How the values were obtained:
[1] = molecular target: T1, Cannabinoid receptor 1 (Homo sapiens, UniProt P21554)
Description: Binding affinity to CB1 receptor

[2] = species on record: Homo sapiens; test: Selectivity for human CB1 receptor over human CB2 receptor
[3] = molecular target: T2, Cannabinoid receptor 2 (Homo sapiens, UniProt P34972); test: Displacement of [3H]CP-55940 from human CB2 receptor expressed in CHO cells; type: cell-based
T2 sequence (P34972 whole entry): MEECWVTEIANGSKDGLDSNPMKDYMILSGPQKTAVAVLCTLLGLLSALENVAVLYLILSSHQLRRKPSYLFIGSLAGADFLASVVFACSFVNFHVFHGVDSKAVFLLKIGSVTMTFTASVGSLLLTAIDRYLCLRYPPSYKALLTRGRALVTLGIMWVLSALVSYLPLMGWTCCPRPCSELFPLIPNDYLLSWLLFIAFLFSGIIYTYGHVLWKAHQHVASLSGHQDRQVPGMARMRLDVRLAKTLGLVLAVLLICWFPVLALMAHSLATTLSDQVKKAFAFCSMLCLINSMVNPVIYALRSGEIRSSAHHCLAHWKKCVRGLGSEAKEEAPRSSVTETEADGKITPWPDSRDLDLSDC

[4] = molecular target: T1, Cannabinoid receptor 1; test: biochemical; type: cell-based, HEK293
Description: Displacement of [3H]CP-55940 from human CB1 receptor expressed in HEK293 cells

[5] = molecular target: T2, Cannabinoid receptor 2; test: Binding affinity to CB2 receptor

T1 sequence (P21554 whole entry): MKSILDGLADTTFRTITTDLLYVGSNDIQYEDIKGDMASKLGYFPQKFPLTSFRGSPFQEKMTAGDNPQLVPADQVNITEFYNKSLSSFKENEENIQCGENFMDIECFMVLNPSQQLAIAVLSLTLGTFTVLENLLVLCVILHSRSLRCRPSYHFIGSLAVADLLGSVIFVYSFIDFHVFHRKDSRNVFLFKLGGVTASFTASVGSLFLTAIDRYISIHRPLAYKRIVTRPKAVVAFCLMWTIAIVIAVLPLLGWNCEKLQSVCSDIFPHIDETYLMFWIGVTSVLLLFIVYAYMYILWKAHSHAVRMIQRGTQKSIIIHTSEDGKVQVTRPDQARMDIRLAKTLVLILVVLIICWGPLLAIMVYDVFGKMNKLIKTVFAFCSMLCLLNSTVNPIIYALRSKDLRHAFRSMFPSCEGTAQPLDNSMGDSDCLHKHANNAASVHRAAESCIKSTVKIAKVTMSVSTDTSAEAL

| Ki [1] [nM] | Ratio Ki [2] | Ki [3] [nM] | Ki [4] [nM] | Ki [5] [nM] | Structure (SMILES) |
| --- | --- | --- | --- | --- | --- |
| < 100 |  |  |  |  | CS(=O)(=O)C(=C1CN(C(c2ccc(Cl)cc2)c2ccc(Cl)cc2)C1)c1cc(F)cc(F)c1 |
|  | 5 | 282 | 52.8 |  | CC(=O)SC(CCc1ccccc1)[C@H]1C(=O)N(c2ccc(F)cc2)[C@@H]1c1ccc(O)cc1 (stereo partly specified) |
| 5.8 |  |  |  | 2310 | O=C(NN1CCCCC1)c1nn(-c2ccc(Cl)cc2Cl)c(-c2ccc(-c3cccnc3)cc2)c1CO |
|  |  |  |  | > 10000 | COc1ccc(-c2oc3cc(OC)ccc3c2C(=O)c2ccc(C#N)cc2)cc1 |
|  |  |  |  | 21 | O=C(NN1CCCCC1)c1nn(-c2ccc(Cl)cc2Cl)c2c1CCCc1cc(Cl)ccc1-2 |
|  |  | 194 | 839 |  | COc1ccc([C@@H]2[C@@H](Cc3cc4ccccc4o3)C(=O)N2c2ccccc2)cc1 |
|  |  | > 1820 | 301 |  | O=C1[C@@H](CCC(O)c2ccc(F)cc2)[C@H](c2ccc(O)cc2)N1c1ccc(F)cc1 (stereo partly specified) |
|  |  | 1240 | 451 |  | COc1ccc(C2C(CCS(=O)(=O)c3ccccc3)C(=O)N2c2ccccc2)cc1 (stereo unspecified) |
|  |  | 1090 | 244 |  | COc1ccc([C@@H]2[C@@H](CCCc3cccnc3)C(=O)N2c2ccccc2)cc1 |
